# From patent US9115072B2, “Compounds and method for reducing uric acid” (WELLSTAT THERAPEUTICS CORPORATION, priority 2008, dated 2015)
# Several values for one entry are separate records, joined by “and”; a condition that tells them apart may be missing. Equal values may be shown once.
# Test: Mouse oral single-dose pharmacokinetic study
# Format: in vivo
# Details: for Compound EH Concentration in mouse PLASMA: individual mice; for Compound EH concentr., mean: Data from Sigma Stat
# Method: • 1. Mice received single oral gavage of Compound EH, 100 mg/kg, and plasma was collected at certain times. • 2. Plasma was stored at −80° C. until the day of analysis. • 3. Samples were thawed on 37° C. bath for 5 min and vortexed at top speed for 10 sec. • 4. Mouse plasma, 0.1 mL was mixed with 0.2 mL Acetonitrile, vortexed 1 min, spun down 14000 rpm, 17000 g, at 4° C., for 25 min. • 5. Supernatants were filtered through 0.45 micron, 4 mm, PTFE membrane syringe filter (Phenomenex #AF0-3102-52), and 15 microL were injected and resolved on Luna 3 micron, 100 A pore, C8(2), 150×3 mm, reverse phase column (Phenomenex#00E-4248-YO, SN#259151-7) in 50 min linear gradient from 40% to 69% of (0.1% Formic Acid, 89.9% Acetonitrile, 10% Methanol) at 0.25 mL/min, 100 bar, 37° C. column temperature, method 406975M1, Sequence 0205-09A, Agilent 1100 LC-MS.
# All samples were run in duplicate, 210 nm and 230 nm Absorbances, Negative and Positive ionization spectrograms recorded.
# • Step 1. Plasma from “Vehicle” animals (pooled), 0.19 mL, was mixed with 0.01 mL 20× stock of Compound EH in Methanol to make 500 microM, 250 microM, 125 microM, . . . , concentrations of Compound EH in plasma. • For example: 190 microL plasma+10 microL of 10 mM Compound EH in methanol=0.2 mL plasma with 500 microM Compound EH. • Step 2. Samples from step 1 were vortexed for 10 sec at top speed. • Step 3. 0.4 mL of acetonitrile was added to all samples from Step 2, and all vials were vortexed at top speed for 1 min • Step 4. All samples from step 3 were spun down 14000 rpm, 17000 g, at 4° C., for 25 min. • Step 5. Supernatants were filtered through 0.45 micron, 4 mm, PTFE membrane syringe filter (Phenomenex #AF0-3102-52), 15 microL were injected and resolved on Luna 3 micron, 100 A pore, C8(2), 150×3 mm, reverse phase column
structure (smiles),measurement,setting,value
"Cc1ccc(CC(=O)O)cc1OCc1c(C)cccc1C [Compound EH, 2-(3-(2,6-Dimethylbenzyloxy)-4-methylphenyl)acetic acid]",Compound EH Concentration in mouse PLASMA,"100 mg/kg single oral gavage, bleed time 0.5 HR, 100 mg/kg",430 µM and 342 µM and 523 µM
same,Compound EH Concentration in mouse PLASMA,"100 mg/kg single oral gavage, bleed time 1 HR, 100 mg/kg",467 µM and 447 µM and 406 µM
same,Compound EH Concentration in mouse PLASMA,"100 mg/kg single oral gavage, bleed time 2 HR, 100 mg/kg",178 µM and 238 µM and 241 µM
same,Compound EH Concentration in mouse PLASMA,"100 mg/kg single oral gavage, bleed time 4 HR, 100 mg/kg",148 µM and 154 µM and 134 µM
same,Compound EH Concentration in mouse PLASMA,"100 mg/kg single oral gavage, bleed time 6 HR, 100 mg/kg",93 µM and 268 µM and 231 µM
same,Compound EH Concentration in mouse PLASMA,"100 mg/kg single oral gavage, bleed time 8 HR, 100 mg/kg",95 µM and 147 µM and 187 µM
same,Compound EH Concentration in mouse PLASMA,"100 mg/kg single oral gavage, bleed time 12 HR, 100 mg/kg",79 µM and 36 µM and 74 µM
same,Compound EH Concentration in mouse PLASMA,"100 mg/kg single oral gavage, bleed time 16 HR, 100 mg/kg",25 µM and 61 µM
same,Compound EH Concentration in mouse PLASMA,"100 mg/kg single oral gavage, bleed time 24 HR, 100 mg/kg",40 µM and 26 µM and 0.74 µM
same,Compound EH Concentration in mouse PLASMA,"100 mg/kg single oral gavage, bleed time 48 HR",0 µM
same,"Compound EH concentr., mean","mouse plasma, 100 mg/kg oral, time bleed 0 HR",0 µM
same,"Compound EH concentr., mean","mouse plasma, 100 mg/kg oral, time bleed 0.5 HR",431.7 µM
same,"Compound EH concentr., mean","mouse plasma, 100 mg/kg oral, time bleed 1 HR",440 µM
same,"Compound EH concentr., mean","mouse plasma, 100 mg/kg oral, time bleed 2 HR",219 µM
same,"Compound EH concentr., mean","mouse plasma, 100 mg/kg oral, time bleed 4 HR",145.3 µM
same,"Compound EH concentr., mean","mouse plasma, 100 mg/kg oral, time bleed 6 HR",197.3 µM
same,"Compound EH concentr., mean","mouse plasma, 100 mg/kg oral, time bleed 8 HR",143 µM
same,"Compound EH concentr., mean","mouse plasma, 100 mg/kg oral, time bleed 12 HR",63 µM
same,"Compound EH concentr., mean","mouse plasma, 100 mg/kg oral, time bleed 16 HR",43 µM
same,"Compound EH concentr., mean","mouse plasma, 100 mg/kg oral, time bleed 24 HR",22.247 µM
same,"Compound EH concentr., mean","mouse plasma, 100 mg/kg oral, time bleed 48 HR",0 µM
same,Cmax,"mouse plasma, 100 mg/kg single oral gavage",440 µM
same,concentration at 0 h,"mouse, plasma, 100 mg/kg oral, Time 0 HR, Table 13, read-out: Cpd. EH (mouse plasma concentration)",0 nM
same,concentration at 0.5 h,"mouse, plasma, 100 mg/kg oral, Time 0.5 HR, Table 13, read-out: Cpd. EH (mouse plasma concentration)",432 µM
same,concentration at 1 h,"mouse, plasma, 100 mg/kg oral, Time 1 HR, Table 13, read-out: Cpd. EH (mouse plasma concentration)",440 µM
same,concentration at 2 h,"mouse, plasma, 100 mg/kg oral, Time 2 HR, Table 13, read-out: Cpd. EH (mouse plasma concentration)",219 µM
same,concentration at 4 h,"mouse, plasma, 100 mg/kg oral, Time 4 HR, Table 13, read-out: Cpd. EH (mouse plasma concentration)",145 µM
same,concentration at 6 h,"mouse, plasma, 100 mg/kg oral, Time 6 HR, Table 13, read-out: Cpd. EH (mouse plasma concentration)",197 µM
same,concentration at 8 h,"mouse, plasma, 100 mg/kg oral, Time 8 HR, Table 13, read-out: Cpd. EH (mouse plasma concentration)",143 µM
same,concentration at 12 h,"mouse, plasma, 100 mg/kg oral, Time 12 HR, Table 13, read-out: Cpd. EH (mouse plasma concentration)",63 µM
same,concentration at 16 h,"mouse, plasma, 100 mg/kg oral, Time 16 HR, Table 13, read-out: Cpd. EH (mouse plasma concentration)",43 µM
same,concentration at 24 h,"mouse, plasma, 100 mg/kg oral, Time 24 HR, Table 13, read-out: Cpd. EH (mouse plasma concentration)",22 µM
same,concentration at 48 h,"mouse, plasma, 100 mg/kg oral, Time 48 HR, Table 13, read-out: Cpd. EH (mouse plasma concentration)",0 nM
